Experimental data from publication PMC12281475, “Mediator Kinase Inhibitor Selectivity and Activity in Colorectal Cancer” (ACS Chemical Biology, 2025).

Test system: COLO205 cells
Assay: Phospho-proteome profiling (CDK-motif antibody enrichment, LC-MS/MS)
Assay type: cell-based, human
Settings: 6 H
Source text: We phospho-proteome profiled COLO205 cells to identify Mediator kinase substrates following chemical inhibition of Mediator kinase activity. Given the confirmed CDK8/19 selectivity of our compounds in binding and enzymatic activity assays, we employed a pool of antibodies selective for the proline-rich motifs phosphorylated by the CDK family to enrich potential CDK8/19 substrates for LC-MS/MS analysis.
Adherent COLO205 cells were lysed with a urea buffer, lysates were reduced with DTT, alkylated with iodoacetimide and digested with trypsin-tosylphenylalanyl chloromethyl ketone. Digested peptides were immunoprecipitated using a pool of motif antibodies from Cell Signaling Technologies (US) comprising: phospho-MAPK substrate (PXS*P or S*PXR/K, #2325, RRID:AB_331820), phospho-CDKs substrate ((K/H)-S*P, #2324; RRID:AB_2244779), phospho-PLK binding motif (ST*P, #5243; RRID:AB_10891778) and phospho-tPE motif (T*PE, #3004; RRID:AB_10890649)-of phospho-MAPK (2325), phospho-CDK (2324), phospho-PLK (5243) and phospho-tPE (C3004) motif-recognizing antibodies immobilized onto protein A/G beads. Immunoprecipitated peptides were analyzed using an LTQ-Orbitrap-Velos. Sequences were assigned to the MS/MS spectra and evaluated using SEQUEST 3G and SORCERER 2 (Sage-N Research v4.0, Milpitas). Quantitative data was evaluated and clustered in Spotfire Decision Site (www.spotfire.tibco.com) and normalized using quartile normalization. Functional annotation and pathway analysis used DAVID (https://david.ncifcrf.gov/). […]
Phospho-proteome analyses
Adherent COLO205 cells were washed with PBS and cells lysed using urea lysis buffer (9 M Urea, 20 mM HEPES, pH 8.0, 1 mM beta-glycerophosphate, 1 mM sodium vanadate, 2.5 mM sodium pyrophosphate) and stored at -80 °C prior to analysis. The supernatants were reduced with 100 mM DTT for 30 minutes at 55 °C, followed by alkylation with 50 mM iodoacetimide for 15 minutes at ambient temperature in the dark.
The samples were diluted in 20 mM HEPES, pH 8.0 and digested overnight with 10 ug/mL trypsin-tosylphenylalanyl chloromethyl ketone in 1 mM HCl. Digested peptides were acidified with 1% formic acid and then desalted over 360-mg SEP PAK C18 columns (Waters, UK). Peptides were eluted with 40% acetonitrile in 0.125% formic acid, dried under a vacuum and the lyophilised peptides used for immunoprecipitation.
A pool of motif antibodies from Cell Signaling Technologies (US) comprising: phospho-MAPK substrate (PXS*P or S*PXR/K, #2325, RRID:AB_331820), phospho-CDKs substrate ((K/H)S*P, #2324; RRID:AB_2244779), phospho-PLK binding motif (ST*P, […]
RRID:AB_10890649), were immobilised onto protein A/G beads overnight at 4 °C. The lyophilised peptides were resuspended in MOPS buffer (50 mM MOPS, pH 7.2, 10 mM KH2PO4, 50 mM NaCl) and centrifuged for 5 mins at 13,500 rpm in an Eppendorf benchtop microcentrifuge. The supernatants were incubated with the motif-bound beads for 2.5 hours at 4 °C . The beads were harvested by centrifugation at 4000 rpm in an Eppendorf benchtop microcentrifuge for 5 mins, washed with MOPS buffer twice and washed again 5 times with deionised water. The peptides were eluted off the beads using 0.125% formic acid, were desalted and dried under a vacuum. The lyophilised immunoprecipitated peptides were resuspended in 0.125% formic acid and separated on a capillary column packed with Magic C18 AQ reversed-phase resin.
Peptides were eluted using a 72-minute linear gradient of acetonitrile in 0.125% formic acid delivered at 280nL/min. Samples were analysed using an LTQ-Orbitrap-Velos.
MS Parameter Settings were: MS Run Time 96 min, MS1 Scan Range (300.0 – 1500.00), Top 20 MS/MS (Min Signal 500, Isolation Width 2.0, Normalized Coll.
Charge State Rejection Enabled, Charge State 1+ Rejected, Dynamic Exclusion Enabled, Repeat Count 1, Repeat Duration 35.0, Exclusion List Size 500, Exclusion Duration 40.0, Exclusion Mass Width Relative to Mass, Exclusion Mass Width 10ppm). […]

[1] = RACGAP1 peptide 572 - vsllgpvTTpehqllkTpSSSSlsqr - 597
[2] = RB1 peptide 788 - spykfpsSplripggniYisplkSpykiseglptptk - 824
[3] = RB1 peptide 792 - fpSSplripggniyiSplkSpYkiseglptpTk - 824
[4] = SEMA6A peptide 745 - adqhhldltalpTpestptlqqk - 767
[5] = SH3RF1 peptide 682 - ivtvlpglpTSpdsassacgnssatkpdkdsk - 713
[6] = SPEN peptide 188 - SrSpnrfdahdpr - 200
[7] = STAT1 peptide 716 - lqttdnllpmsSpeefdevsr - 736
[8] = TACC2 peptide 8/2304 - mkkTpekldntpaSpprSpaepndipiak - 36/2332
[9] = TANC2 peptide 1556 - sqSgspvryqqetsvsqlpgrpksplsSk - 1583
[10] = TASOR peptide 969 - qrSSdYqfpSSpftdtlk - 986
[11] = TASOR peptide 971- ssdyqfpSspftdtlk - 986
[12] = TASOR peptide 971 - ssdyqfpsSpftdtlk - 986
[13] = TBC1D10B peptide 686 - asagpapgpvvtaeglhpslpSptgnsTplgssk - 718
[14] = TBC1D23 peptide 505- visfientsTpvdr - 518
[15] = TFEB peptide 406 - edegppgypeplapghgSpfpslsk - 430
[16] = TGS1 peptide 290 - vdlvsfpsSpimvdndssgtsdkdhseildgisnik - 325
[17] = TLE3 peptide 282 - daptspasvassssTpssk - 300
[18] = TMPO peptide 151 - eqgteSrssTplptisssaentr - 173
[19] = TNRC18 peptide 1230 - vdSpgrTepcTaaldlgvqlTpeTlveak -1258
[20] = TUT1 peptide 273 - apespSldsalaSpldpqa - 293l
[21] = UBR5 peptide 634 - rsTpapkeeekvneeqwslr -653
[22] = WAC peptide 455 - iStpqtntvpikplisTppvsSqpk - 479
[23] = ZC3H13 peptide 1206 - lrSpSndsahr - 1216
[24] = ZMYM4 peptide 1085 - dqgstysgdleseavStphsweeelnhyalk -1115
[25] = ZMYND8 peptide 278/423 - rislsdmprSpmstnssvhtgsdveqdaekk - 307/452
[26] = ZNF687 peptide 123 - mqngfgSpepslpgtphSpappSggtwk - 150

Cn1cc(-c2ccc(-c3cncc(Cl)c3N3CCC4(CCNC4=O)CC3)cc2)cn1 [CCT251545]
CMPD 1/DMSO [1]: 0.557
MEAN MS SIGNAL CMPD 1 6 H [1]: 38518
CMPD 1/DMSO [2]: 1.786
MEAN MS SIGNAL CMPD 1 6 H [2]: 21423
CMPD 1/DMSO [3]: 1.780
MEAN MS SIGNAL CMPD 1 6 H [3]: 52675
CMPD 1/DMSO [4]: 2.360
MEAN MS SIGNAL CMPD 1 6 H [4]: 62365
CMPD 1/DMSO [5]: 0.610
MEAN MS SIGNAL CMPD 1 6 H [5]: 121720
CMPD 1/DMSO [6]: 2.092
MEAN MS SIGNAL CMPD 1 6 H [6]: 88908
CMPD 1/DMSO [7]: 0.357
MEAN MS SIGNAL CMPD 1 6 H [7]: 223699
CMPD 1/DMSO [8]: 0.521
MEAN MS SIGNAL CMPD 1 6 H [8]: 16068
CMPD 1/DMSO [9]: 3.615
MEAN MS SIGNAL CMPD 1 6 H [9]: 175022
CMPD 1/DMSO [10]: 0.437
MEAN MS SIGNAL CMPD 1 6 H [10]: 47745
CMPD 1/DMSO [11]: 0.316
MEAN MS SIGNAL CMPD 1 6 H [11]: 116521
CMPD 1/DMSO [12]: 0.406
MEAN MS SIGNAL CMPD 1 6 H [12]: 489288
CMPD 1/DMSO [13]: 0.515
MEAN MS SIGNAL CMPD 1 6 H [13]: 63051
CMPD 1/DMSO [14]: 0.544
MEAN MS SIGNAL CMPD 1 6 H [14]: 230940
CMPD 1/DMSO [15]: 0.596
MEAN MS SIGNAL CMPD 1 6 H [15]: 1352019
CMPD 1/DMSO [16]: 0.563
MEAN MS SIGNAL CMPD 1 6 H [16]: 156101
CMPD 1/DMSO [17]: 2.152
MEAN MS SIGNAL CMPD 1 6 H [17]: 35775
CMPD 1/DMSO [18]: 2.220
MEAN MS SIGNAL CMPD 1 6 H [18]: 19216
CMPD 1/DMSO [19]: 0.311
MEAN MS SIGNAL CMPD 1 6 H [19]: 69822
CMPD 1/DMSO [20]: 2.097
MEAN MS SIGNAL CMPD 1 6 H [20]: 41046
CMPD 1/DMSO [21]: 0.456
MEAN MS SIGNAL CMPD 1 6 H [21]: 139720
CMPD 1/DMSO [22]: 0.617
MEAN MS SIGNAL CMPD 1 6 H [22]: 154581
CMPD 1/DMSO [23]: 1.804
MEAN MS SIGNAL CMPD 1 6 H [23]: 405976
CMPD 1/DMSO [24]: 0.475
MEAN MS SIGNAL CMPD 1 6 H [24]: 46592
CMPD 1/DMSO [25]: 0.617
MEAN MS SIGNAL CMPD 1 6 H [25]: 23551
CMPD 1/DMSO [26]: 0.458
MEAN MS SIGNAL CMPD 1 6 H [26]: 22069
